According to ChEMBL document CHEMBL4396870, “Pharmacological Chaperones for the Treatment of α-Mannosidosis” (J Med Chem, 2019):
Substitutions are numbered along the chain they refer to.

Columns and labels:
[1] = target: T1, Lysosomal alpha-mannosidase (Homo sapiens) (UniProt O00754); assay: Chaperone activity at Lysosomal alpha-mannosidase in wild-type human fibroblasts assessed as increase in Lysosomal alpha-mannosidase activity at 0.2 uM using 4-methylumbelliferone alpha-D-mannopyranoside as a reporter substrate incubated for 4 days by fluorescence method relative to control
T1 sequence (whole entry): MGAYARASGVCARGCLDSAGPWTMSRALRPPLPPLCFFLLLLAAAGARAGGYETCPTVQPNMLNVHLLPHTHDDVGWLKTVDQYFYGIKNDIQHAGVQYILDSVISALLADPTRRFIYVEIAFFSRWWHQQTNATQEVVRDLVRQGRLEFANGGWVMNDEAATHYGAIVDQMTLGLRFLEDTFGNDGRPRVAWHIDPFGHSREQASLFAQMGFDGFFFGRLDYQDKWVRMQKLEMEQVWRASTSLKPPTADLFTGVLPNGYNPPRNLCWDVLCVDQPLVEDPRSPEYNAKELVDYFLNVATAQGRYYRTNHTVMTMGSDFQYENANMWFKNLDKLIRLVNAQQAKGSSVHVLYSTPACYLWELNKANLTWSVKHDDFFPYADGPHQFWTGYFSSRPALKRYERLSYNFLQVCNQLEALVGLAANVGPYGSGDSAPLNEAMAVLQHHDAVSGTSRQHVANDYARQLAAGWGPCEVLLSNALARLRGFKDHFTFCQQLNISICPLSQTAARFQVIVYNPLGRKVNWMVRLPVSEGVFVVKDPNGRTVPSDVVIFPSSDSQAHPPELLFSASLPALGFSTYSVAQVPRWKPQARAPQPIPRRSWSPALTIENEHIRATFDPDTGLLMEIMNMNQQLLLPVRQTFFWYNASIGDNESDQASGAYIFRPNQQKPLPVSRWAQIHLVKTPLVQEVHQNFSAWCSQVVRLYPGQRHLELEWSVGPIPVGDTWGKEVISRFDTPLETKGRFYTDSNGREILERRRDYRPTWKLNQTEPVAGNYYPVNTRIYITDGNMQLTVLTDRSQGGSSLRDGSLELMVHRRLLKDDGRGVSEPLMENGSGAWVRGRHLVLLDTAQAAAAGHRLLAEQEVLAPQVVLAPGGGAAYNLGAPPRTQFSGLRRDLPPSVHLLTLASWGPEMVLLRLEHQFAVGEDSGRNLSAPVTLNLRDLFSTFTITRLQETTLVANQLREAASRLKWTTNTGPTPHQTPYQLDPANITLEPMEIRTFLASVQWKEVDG

[2] = system: T2, Lysosomal alpha-mannosidase (Homo sapiens), O00754 [C55F]; assay: Chaperone activity at human Lysosomal alpha-mannosidase C55F mutant transfected in human […] knockout HAP1 cells assessed as enzyme activity enhancement at 20 uM incubated for 96 hrs relative to control
T2 sequence (whole entry): T1 sequence (whole entry) with C55F

fold change (FC) [1] | Activity [2] [%] | Compound
2 | 16 | COC[C@H]1O[C@@H]2O[C@H]3[C@H](OC)[C@@H](OC)[C@@H](O[C@H]4[C@H](OC)[C@@H](OC)[C@@H](O[C@H]5[C@H](OC)[C@@H](OC)[C@@H](O[C@H]6[C@H](OC)[C@@H](OC)[C@@H](O[C@H]7[C@H](OC)[C@@H](OC)[C@@H](O[C@H]8[C@H](OC)[C@@H](OC)[C@@H](O[C@H]1[C@H](OC)[C@H]2OC)O[C@@H]8COC)O[C@@H]7COC)O[C@@H]6COC)O[C@@H]5COCc1cn(CCCCCCN[C@@H]2[C@@H](O)[C@@H](O)[C@H](O)[C@H]5COC(=O)N52)nn1)O[C@@H]4COC)O[C@@H]3COC
 | 111 | CC(C)(C)OC(=O)NCCCCCCCCCN[C@@H]1[C@@H](O)[C@@H](O)[C@H](O)[C@H]2COC(=O)N21
2 |  | CCCc1cn(CCCCCCN[C@@H]2[C@@H](O)[C@@H](O)[C@H](O)[C@H]3COC(=O)N32)nn1
